Laboratory results: patent US20260365696A1, “INHIBITORS OF PTP1B / NCK1 INTERACTION AND METHODS OF MAKING AND USING SAME” (Radella Pharmaceuticals LLC, priority 2023, published 2026)
Non-standard residues stand in square brackets, D forms with d. Residues, ends and D or L forms follow the SMILES beside them. pGlu = O=C1CC[C@@H](C(=O)O)N1

Target: T1, SH3-2 domain of NCK1 (Homo sapiens, UniProt P16333)
T1 construct: To amplify the NCK1 SH3-2 domain, the primers; 10xHis tag with TEV site (vector pSF-OXB20-NH2-10HIS) (N, cleaved yes); made in house; host or cells: E. coli C43(DE3)
Assay: Isothermal titration calorimetry (ITC) binding to NCK1 SH3-2 domain
Conditions: ITC, 25 °C, pH 8.0
Excerpt: Human PTP1B cDNA (NM_002827) and human NCK1 cDNA (NM 006153) were obtained (Origene, MD, USA). PTP1B Primers were designed to amplify the ORFs with added homology to the cut vector (EcoRI-digested pSF-OXB20-NH2-10HIS) in the forward primer sequence. To amplify full-length PTP1B, the primers ptp1b_FL_fwd ([…]) (SEQ ID NO: 159) and ptp1b_FL_rev ([…]) (SEQ ID NO: 160) were used. To amplify truncations of PTP1B, the following primer pairs were used: ptp1b_FL-Fwd and one of Ptplb_323stop_rev (gtgcaggaggagttcgaatt[…]) (SEQ ID NO: 161), ptp1b_344stop_rev ([…]) (SEQ ID NO: 162) or ptp1b_278stop_rev([…]) (SEQ ID NO: 163). To amplify the NCK1 SH3-2 domain, the primers ncklsh32_fwd ([…]) (SEQ ID NO: 164) and ncklsh32_rev ([…]) (SEQ ID NO: 165) were used. The amplified fragments were purified using a DNA clean-up kit according to manufacturer's instructions (QIAquick PCR purification kit, Qiagen).
To produce and purify fusion proteins, a culture was inoculated with 1% of overnight-cultured inoculum. Protein expression was carried out under the conditions described above, scaled up as necessary. Cells expressing the recombinant proteins were harvested in 50 mL tubes by centrifugation and stored at −80 °C. Cells containing the expressed gene product were thawed over ice and resuspended in Extraction buffer (10 mM Tris, pH 7.4 or 10 mM Sodium Phosphate, pH 8.0; 300 mM NaCl, 1 mM DTT or TCEP; 0-10% glycerol and 1 μg lysozyme) and sonicated over ice (4 °C) for 3 min total using pulses of 5 s with 15 s intervals, using a wide probe at 15 amplitude microns (Soniprep 150, MSE). Insoluble material was removed from the lysate by centrifugation at 20K rpm for 20-60 min at 4 °C. Supernatant was filtered through a 0.22 μm PVDF filter membrane and applied to 1-2 5 mL HisTrap FF Crude (Cytiva) prepacked Ni columns and connected to an AKTA explorer. After thorough washing with binding buffer (10 mM Tris, pH 7.4 or 10 mM Sodium Phosphate, pH 8.0; 300 mM NaCl; 1 mM DTT or TCEP and 25 mM Imidazole), protein was eluted using elution buffer (10 mM Tris, pH 7.4 or 10 mM Sodium Phosphate, pH 8.0; 150-300 mM NaCl; 1 mM DTT or TCEP and 250 mM Imidazole). Fractions containing protein of interest were confirmed by SDS PAGE. Protein was diluted with GF buffer (10 mM Tris, pH 7.4 or 10 mM Sodium Phosphate, pH 8.0; 150-300 mM NaCl) and subjected to TEV protease treatment overnight at 4-10 °C. Following proteolytic digestion, HIS-tag and TEV protease were removed by filtration through a clean 5 mL HisTrap FF Crude (Cytiva) prepacked Ni column. Protein was concentrated on a PES ultrafiltration device by centrifugation at 4000 rpm at 4 °C, and protein was polished via a HiPrep S-100 26/60 (Cytiva) using GF buffer (as described above). Purified proteins were concentrated using ultrafiltration, and protein concentration was determined using ultraviolet-visible spectroscopy. The integrity and identity of all proteins were verified by mass spectrographic analysis.
Isothermal titration calorimetry (ITC) was used to determine binding affinities for peptides against the SH3-2 domain of NCK1. Experiments were conducted at 25 °C using either a MicroCal iTC200 or MicroCal PEAQ-ITC calorimeter. The buffer used for all ITC experiments was 10 mM sodium [COMPOUND LEFT OUT] mM sodium chloride (pH=8.0). A series of peptides (concentration 3-7.5 mM) were titrated in to NCK1 SH3-2 domain (concentration 0.125-0.3 mM) using the following conditions: one injection of 0.2 μL followed by 19 injections of 2 μL, 120-150 seconds spacing between injections, at 25 °C. The data were fit using analysis software provided by the manufacturer and affinity values were calculated. The best fitting occurred when the number of sites was between 0.8 and 1.2. The experiments were repeated twice for a total of three times, and the average binding affinity for each peptide was generated. […]

[1] = substitutions at position 8 of the 8-mer MH063, certain peptides tested one to three times
[2] = substitutions at position 4 of MD18 in a 7-mer
[3] = substitutions at position 3 of MD18
[4] = substitutions at position 1 of MD18
[5] = substitutions at position 6 of MD18
[6] = Sliding window peptide analysis
[7] = N- or C-terminal extensions, 30-mers tested one to three times
[8] = Alanine scanning of the MD20 6-mer peptide
[9] = Alanine scanning of the MD17 15-mer peptide

Compound: Ac-PPRPPKRC-NH2 [MH142]
- Kd [1]: ≤ 300 µM

Compound: Ac-PPRKPKR-NH2 [MH104, Ac-PPRKPKR-NH2]
- Kd [2]: 300 to 600 µM

Compound: Ac-PAVPPRP-NH2 [MH082, Ac-PAVPPRP-NH2, reference compound]
- Kd (exemplary control peptides): > 1000 µM

Compound: Ac-PPKPPKR-NH2 [MH055, Ac-PPKPPKR-NH2]
- Kd [3]: ≤ 300 µM

Compound: Ac-PPRCPKR-NH2 [MH129, Ac-PPRCPKR-NH2]
- Kd [2]: > 1000 µM

Compound: Ac-PPRPPKRS-NH2 [MH152]
- Kd [1]: ≤ 300 µM

Compound: Ac-PPRWPKR-NH2 [MH118, Ac-PPRWPKR-NH2]
- Kd [2]: > 1000 µM

Compound: Ac-QPRPPKR-NH2 [MH086, Ac-QPRPPKR-NH2]
- Kd [4]: ≤ 300 µM

Compound: Ac-PPDPPKR-NH2 [MH084, Ac-PPDPPKR-NH2]
- Kd [3]: ≤ 300 µM

Compound: Ac-PPHPPKR-NH2 [MH057, Ac-PPHPPKR-NH2]
- Kd [3]: ≤ 300 µM

Compound: Ac-PPRPPKRM-NH2 [MH149]
- Kd [1]: ≤ 300 µM

Compound: Ac-PPRPPMR-NH2 [MH112, Ac-PPRPPMR-NH2]
- Kd [5]: ≤ 300 µM

Compound: Ac-PPRPPNR-NH2 [MH053, Ac-PPRPPNR-NH2]
- Kd [5]: ≤ 300 µM

Compound: Ac-KPRPPKR-NH2 [MH103, Ac-KPRPPKR-NH2]
- Kd [4]: ≤ 300 µM

Compound: Ac-PPRPPKRY-NH2 [MH155]
- Kd [1]: ≤ 300 µM

Compound: Ac-EHIPPP-NH2 [MH039, Ac-EHIPPP-NH2]
- Kd [6]: > 1000 µM

Compound: Ac-PPPPRPPKR-NH2 [MH025]
- Kd (Peptide truncation analysis): ≤ 300 µM

Compound: Ac-SPRPPKR-NH2 [MH074, Ac-SPRPPKR-NH2]
- Kd [4]: ≤ 300 µM

Compound: Ac-PPRPPPR-NH2 [MH107, Ac-PPRPPPR-NH2]
- Kd [5]: ≤ 300 µM

Compound: Ac-RPRPPKR-NH2 [MH068, Ac-RPRPPKR-NH2]
- Kd [4]: ≤ 300 µM

Compound: Ac-PPREPKR-NH2 [MH130, Ac-PPREPKR-NH2]
- Kd [2]: > 1000 µM

Compound: Ac-PPRPPKRF-NH2 [MH150]
- Kd [1]: ≤ 300 µM

Compound: Ac-PPRPPGR-NH2 [MH094, Ac-PPRPPGR-NH2]
- Kd [5]: 600 to 1000 µM

Compound: Ac-PPRPPKRW-NH2 [MH154]
- Kd [1]: ≤ 300 µM

Compound: Ac-PPRPPKRD-NH2 [MH141]
- Kd [1]: ≤ 300 µM

Compound: H-PAVPPRP-NH2 [MH081, H-PAVPPRP-NH2, reference compound]
- Kd (exemplary control peptides): > 1000 µM

Compound: Ac-PPFPPKR-NH2 [MH066, Ac-PPFPPKR-NH2]
- Kd [3]: ≤ 300 µM

Compound: Ac-PPRDPKR-NH2 [MH128, Ac-PPRDPKR-NH2]
- Kd [2]: > 1000 µM

Compound: Ac-PPRPPYR-NH2 [MH122, Ac-PPRPPYR-NH2]
- Kd [5]: ≤ 300 µM

Compound: Ac-PPGPPKR-NH2 [MH092, Ac-PPGPPKR-NH2]
- Kd [3]: 600 to 1000 µM

Compound: Ac-PPRPPKRIL-NH2 [MH064]
- Kd [7]: ≤ 300 µM

Compound: Ac-NPRPPKR-NH2 [MH069, Ac-NPRPPKR-NH2]
- Kd [4]: ≤ 300 µM

Compound: Ac-HPRPPKR-NH2 [MH072, Ac-HPRPPKR-NH2]
- Kd [4]: ≤ 300 µM

Compound: Ac-GPRPPKR-NH2 [MH091, Ac-GPRPPKR-NH2]
- Kd [4]: ≤ 300 µM

Compound: Ac-PPVPPKR-NH2 [MH124, Ac-PPVPPKR-NH2]
- Kd [3]: ≤ 300 µM

Compound: Ac-PPRSPKR-NH2 [MH108, Ac-PPRSPKR-NH2]
- Kd [2]: > 1000 µM

Compound: Ac-PRAPKR-NH2 [MH010, Ac-PRAPKR-NH2]
- Kd [8]: > 1000 µM

Compound: CCNC(=O)[C@H](CCCNC(=N)N)NC(=O)[C@H](CCCCN)NC(=O)[C@@H]1CCCN1C(=O)[C@@H]1CCCN1C(=O)[C@H](CCCNC(=N)N)NC(=O)[C@@H]1CCCN1C(C)=O [MH045, Ac-PRPPKR-NHEt] (Ac-PRPPKR-NHEt)
- Kd (Modified MD18/MD20 peptides): ≤ 300 µM

Compound: Ac-PPEHIPPPPRPPKR-NH2 [MH030]
- Kd (Peptide truncation analysis): ≤ 300 µM

Compound: Ac-PAPEHIPPPPRPPKR-NH2 [MSJ013]
- Kd [9]: ≤ 300 µM

Compound: Ac-TPRPPKR-NH2 [MH113, Ac-TPRPPKR-NH2]
- Kd [4]: ≤ 300 µM

Compound: Ac-PPRPPKRH-NH2 [MH146]
- Kd [1]: ≤ 300 µM

Compound: Ac-LPRPPKR-NH2 [MH099, Ac-LPRPPKR-NH2]
- Kd [4]: 300 to 600 µM

Compound: Ac-PPRRPKR-NH2 [MH062, Ac-PPRRPKR-NH2]
- Kd [2]: 300 to 600 µM

Compound: Ac-APPEHIPPPPRPPKR-NH2 [MSJ012]
- Kd [9]: ≤ 300 µM

Compound: Ac-PPRPPQR-NH2 [MH088, Ac-PPRPPQR-NH2]
- Kd [5]: ≤ 300 µM

Compound: Ac-APRPPKR-NH2 [MH047, Ac-APRPPKR-NH2]
- Kd (Modified MD18/MD20 peptides): ≤ 300 µM
- Kd (Peptide truncation analysis): ≤ 300 µM
- Kd [4]: ≤ 300 µM

Compound: Ac-IPRPPKR-NH2 [MH095, Ac-IPRPPKR-NH2]
- Kd [4]: ≤ 300 µM

Compound: Ac-PPPEHIPPPPRAPKR-NH2 [MH004]
- Kd [9]: ≤ 300 µM

Compound: N=C(N)NCCC[C@H](NC(=O)[C@H](CCCCN)NC(=O)[C@@H]1CCCN1C(=O)[C@@H]1CCCN1C(=O)[C@H](CCCNC(=N)N)NC(=O)[C@@H]1CCC(=O)N1)C(N)=O [MH044, H-Pyr-RPPKR-NH2] ([pGlu]RPPKR-NH2)
- Kd (Modified MD18/MD20 peptides): > 1000 µM

Compound: Ac-VPRPPKR-NH2 [MH123, Ac-VPRPPKR-NH2]
- Kd [4]: ≤ 300 µM

Compound: Ac-PAPPKR-NH2 [MH009, Ac-PAPPKR-NH2]
- Kd [8]: ≤ 300 µM

Compound: Ac-PPRHPKR-NH2 [MH132, Ac-PPRHPKR-NH2]
- Kd [2]: > 1000 µM

Compound: Ac-PPRPPKRI-NH2 [MH063]
- Kd [7]: ≤ 300 µM
- Kd [1]: ≤ 300 µM

Compound: Ac-PPRPPKRN-NH2 [MH140]
- Kd [1]: ≤ 300 µM

Compound: Ac-YPRPPKR-NH2 [MH119, Ac-YPRPPKR-NH2]
- Kd [4]: ≤ 300 µM

Compound: Ac-PEHIPPPPRPPKR-NH2 [MH029]
- Kd (Peptide truncation analysis): ≤ 300 µM

Compound: Ac-PPEHIP-NH2 [MH040, Ac-PPEHIP-NH2]
- Kd [6]: > 1000 µM

Compound: Ac-PPMPPKR-NH2 [MH110, Ac-PPMPPKR-NH2]
- Kd [3]: ≤ 300 µM

Compound: Ac-DPRPPKR-NH2 [MH083, Ac-DPRPPKR-NH2]
- Kd [4]: ≤ 300 µM

Compound: CC(=O)N1CCC[C@H]1C(=O)N[C@@H](CCCCN)C(=O)N[C@@H](CCCNC(=N)N)C(N)=O [MH014, Ac-PKR-NH2] (Ac-Pro-Lys-Arg-NH2)
- Kd (Peptide truncation analysis): > 1000 µM

Compound: CC(=O)N1CCC[C@H]1C(=O)N1CCC[C@H]1C(=O)N[C@@H](CCCCN)C(N)=O [MH015, Ac-PPK-NH2] (Ac-Pro-Pro-Lys-NH2)
- Kd (Peptide truncation analysis): > 1000 µM

Compound: Ac-PPPEHIPPPPRPPAR-NH2 [MH006]
- Kd [9]: ≤ 300 µM

Compound: Ac-PPPEHAPPPPRPPKR-NH2 [MSJ017]
- Kd [9]: ≤ 300 µM

Compound: Ac-SVQDQWKELSHEDLEPPPEHIPPPPRPPKR-NH2 [MH136]
- Kd [7]: ≤ 300 µM
